Experimental data: the Kinase Knowledgebase extract (Sharma et al. 2016)

Target: EGFR (human) (UniProt P00533)
Sequence (P00533 whole entry, looked up): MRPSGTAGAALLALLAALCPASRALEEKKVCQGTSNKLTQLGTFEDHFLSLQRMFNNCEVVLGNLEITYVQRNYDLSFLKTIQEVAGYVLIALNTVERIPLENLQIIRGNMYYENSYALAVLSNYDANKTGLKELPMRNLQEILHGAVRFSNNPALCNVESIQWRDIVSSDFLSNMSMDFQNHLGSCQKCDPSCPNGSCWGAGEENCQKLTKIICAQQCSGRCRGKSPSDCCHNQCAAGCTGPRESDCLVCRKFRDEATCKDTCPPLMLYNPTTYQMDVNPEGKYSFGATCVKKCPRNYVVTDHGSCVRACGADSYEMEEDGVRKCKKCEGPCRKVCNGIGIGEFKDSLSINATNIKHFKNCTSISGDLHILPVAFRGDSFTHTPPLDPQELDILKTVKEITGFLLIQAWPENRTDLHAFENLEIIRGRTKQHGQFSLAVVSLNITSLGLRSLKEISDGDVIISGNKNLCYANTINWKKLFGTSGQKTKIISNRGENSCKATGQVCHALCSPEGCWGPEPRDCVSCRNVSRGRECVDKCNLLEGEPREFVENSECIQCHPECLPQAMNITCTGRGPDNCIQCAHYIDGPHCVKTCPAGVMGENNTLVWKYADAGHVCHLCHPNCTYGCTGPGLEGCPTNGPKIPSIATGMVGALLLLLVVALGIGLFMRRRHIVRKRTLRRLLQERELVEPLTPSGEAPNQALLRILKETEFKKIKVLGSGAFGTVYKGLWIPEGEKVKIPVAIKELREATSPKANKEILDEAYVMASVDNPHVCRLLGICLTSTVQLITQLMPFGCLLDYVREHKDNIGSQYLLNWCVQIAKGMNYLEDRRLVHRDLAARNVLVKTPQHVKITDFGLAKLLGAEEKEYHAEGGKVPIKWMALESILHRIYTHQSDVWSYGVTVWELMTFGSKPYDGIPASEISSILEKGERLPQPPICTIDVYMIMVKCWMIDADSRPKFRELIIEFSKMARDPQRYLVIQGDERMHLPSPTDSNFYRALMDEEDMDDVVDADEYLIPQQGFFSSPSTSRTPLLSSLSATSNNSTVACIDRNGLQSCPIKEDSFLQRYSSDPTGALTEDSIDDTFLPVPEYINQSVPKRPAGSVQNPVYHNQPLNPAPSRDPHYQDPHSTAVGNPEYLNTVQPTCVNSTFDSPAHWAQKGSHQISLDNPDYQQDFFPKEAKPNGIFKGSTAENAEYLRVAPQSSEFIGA

| Compound | IC50 [nM] |
| --- | --- |
| Nc1nc(-c2cccc(NC(=O)C3CCCCC3)c2)c(-c2ccnc(Nc3cccc(-c4cnco4)c3)n2)s1 | < 100 |
| CN(C)CCOc1ccc(Nc2nccc(-c3sc(N)nc3-c3cccc(C(=O)Nc4c(F)cccc4F)c3)n2)cc1Cl | < 100 |
| COc1ccc(Nc2nccc(-c3sc(N)nc3-c3cccc(NC(=O)c4c(F)cccc4F)c3)n2)cc1N(C)C | < 100 |
| COCCNc1nc(-c2cccc(NC(=O)c3c(F)cccc3F)c2)c(-c2ccnc(Nc3ccc(OCCN4CCCC4)c(Cl)c3)n2)s1 | < 100 |
| CN(C)CCCNc1ccc(Nc2nccc(-c3sc(N)nc3-c3cccc(NC(=O)c4cccn4C)c3)n2)cc1F | < 100 |
| O=C(Cc1cccs1)Nc1cccc(-c2ncsc2-c2ccnc(Nc3ccc4c(c3)OCC(=O)N4)n2)c1 | < 100 |
| Cc1nc(-c2cccc(NC(=O)c3c(F)cccc3F)c2)c(-c2ccnc(Nc3ccc(OCCN(C)C)c(F)c3)n2)s1 | < 100 |
| CC(C)c1nc(-c2cccc(NC(=O)c3c(F)cccc3F)c2)c(-c2ccnc(Nc3ccc(OCCN4CCCC4)c(Cl)c3)n2)s1 | < 100 |
| COc1ccc(Nc2nccc(-c3sc(N)nc3-c3cccc(NC(=O)c4c(F)cccc4F)c3)n2)cc1N1CCNCC1 | < 100 |
| CN1CCc2ccc(Nc3nccc(-c4sc(N)nc4-c4cccc(NC(=O)c5c(F)cccc5F)c4)n3)cc2C1 | < 100 |
| CN(C)CCOc1ccc(Nc2nccc(-c3sc(NCCCN4CCOCC4)nc3-c3cccc(NC(=O)c4c(F)cccc4F)c3)n2)cc1Cl | < 100 |
| CN1CCc2ccc(Nc3nccc(-c4sc(NCCCN5CCOCC5)nc4-c4cccc(NC(=O)c5c(F)cccc5F)c4)n3)cc2C1 | < 100 |
| Nc1nc(-c2cccc(NC(=O)c3c(F)cccc3F)c2)c(-c2ccnc(Nc3cccc(CN4CCCC4)c3)n2)s1 | < 100 |
| CNc1nc(-c2cccc(NC(=O)c3c(F)cccc3F)c2)c(-c2ccnc(Nc3ccc(OCCN(C)C)c(Cl)c3)n2)s1 | < 100 |
| CCc1nc(-c2cccc(NC(=O)c3c(F)cccc3F)c2)c(-c2ccnc(Nc3ccc(OCCN4CCCC4)c(F)c3)n2)s1 | < 100 |
| O=C(Nc1cccc(-c2nc(N3CCCCC3)sc2-c2ccnc(Nc3cccc(CN4CCCC4)c3)n2)c1)c1c(F)cccc1F | < 100 |
| CCN(CC)CCOc1cccc(Nc2nccc(-c3sc(N)nc3-c3cccc(NC(=O)c4c(F)cccc4F)c3)n2)c1 | < 100 |
| O=C1COc2ccc(Nc3nccc(-c4scnc4-c4cccc(NC(=O)c5cc(F)ccc5F)c4)n3)cc2N1 | < 100 |
| CN(C)CCOc1ccc(Nc2nccc(-c3sc(N)nc3-c3cc(NC(=O)c4c(F)cccc4F)ccc3F)n2)cc1Cl | < 100 |
| Cc1nc(-c2cccc(NC(=O)c3c(F)cccc3F)c2)c(-c2ccnc(Nc3ccc(OCCN(C)C)c(Cl)c3)n2)s1 | < 100 |
| O=C1COc2cc(Nc3nccc(-c4scnc4-c4cccc(NC(=O)c5cc(F)ccc5F)c4)n3)ccc2N1 | < 100 |
| CC(C)c1nc(-c2cccc(NC(=O)c3c(F)cccc3F)c2)c(-c2ccnc(Nc3cccc(OCCN(C)C)c3)n2)s1 | < 100 |
| CCNc1nc(-c2cccc(NC(=O)c3c(F)cccc3F)c2)c(-c2ccnc(Nc3ccc(CCN4CCCC4)c(F)c3)n2)s1 | < 100 |
| O=C(Nc1cccc(-c2nc(NC3CC3)sc2-c2ccnc(Nc3ccc(OCCN4CCCC4)c(F)c3)n2)c1)c1c(F)cccc1F | < 100 |
| CN(C)c1nc(-c2cccc(NC(=O)c3c(F)cccc3F)c2)c(-c2ccnc(Nc3ccc(N4CCOCC4)c(Cl)c3)n2)s1 | < 100 |
| O=C(Cc1cccs1)Nc1cccc(-c2ncsc2-c2ccnc(Nc3ccc4c(c3)NC(=O)CO4)n2)c1 | < 100 |

More lines, now with the values ahead:

| IC50 [nM] | Compound |
| --- | --- |
| < 100 | CN(C)C1Cc2ccc(Nc3nccc(-c4scnc4-c4cccc(NC(=O)Cc5cccs5)c4)n3)cc2C1 (stereo not drawn) |
| < 100 | CN(C)CCOc1ccc(Nc2nccc(-c3sc(N(C)C)nc3-c3cccc(NC(=O)c4c(F)cccc4F)c3)n2)cc1Cl |
| < 100 | Cc1nc(-c2cccc(NC(=O)c3cccnc3F)c2)c(-c2ccnc(Nc3ccc4c(c3)CN(C)CC4)n2)s1 |
| < 100 | COc1ccc(Nc2nccc(-c3sc(N)nc3-c3cccc(NC(=O)c4c(F)cccc4F)c3)n2)cc1N1CCN(C)CC1 |
| < 100 | CN(C)CCOc1ccc(Nc2nccc(-c3sc(N)nc3-c3ccc(F)c(NC(=O)c4c(F)cccc4F)c3)n2)cc1Cl |
| < 100 | CCc1nc(-c2cccc(NC(=O)c3c(F)cccc3F)c2)c(-c2ccnc(Nc3cccc(CN4CCCC4)c3)n2)s1 |
| < 100 | Nc1nc(-c2cccc(C(=O)Nc3c(F)cccc3F)c2)c(-c2ccnc(Nc3cccc(CN4CCCC4)c3)n2)s1 |
| < 100 | CN(C)CCOc1ccc(Nc2nccc(-c3scnc3-c3cccc(NC(=O)c4c(F)cccc4F)c3)n2)cc1Cl |
| < 100 | O=C(Nc1cccc(-c2nc(N3CCC3)sc2-c2ccnc(Nc3ccc(OCCN4CCCC4)c(Cl)c3)n2)c1)c1c(F)cccc1F |
| < 100 | Nc1nc(-c2cccc(OCc3ccccc3)c2)c(-c2ccnc(Nc3cccc(-c4cnco4)c3)n2)s1 |
| < 100 | CN(C)CCCNc1ccc(Nc2nccc(-c3sc(N)nc3-c3cccc(NC(=O)C4CCCCC4)c3)n2)cc1F |
| < 100 | CCNc1nc(-c2cccc(NC(=O)c3c(F)cccc3F)c2)c(-c2ccnc(Nc3ccc(OCCN(C)C)c(Cl)c3)n2)s1 |
| < 100 | COc1cccc(C(=O)Nc2cccc(-c3nc(C)sc3-c3ccnc(Nc4ccc5c(c4)CN(C)CC5)n3)c2)c1 |
| < 100 | O=C(Nc1cccc(-c2nc(CF)sc2-c2ccnc(Nc3ccc(OCCN4CCCC4)c(F)c3)n2)c1)c1c(F)cccc1F |
| < 100 | Nc1nc(-c2cccc(NC(=O)c3c(F)cccc3F)c2)c(-c2ccnc(Nc3ccc4c(c3)OCC(=O)N4)n2)s1 |
| < 100 | CN(C)Cc1cccc(Nc2nccc(-c3scnc3-c3cccc(NC(=O)c4c(F)cccc4F)c3)n2)c1 |

| IC50 [nM] | Compound |
| --- | --- |
| < 100 | COCCOc1ccc(Nc2nccc(-c3sc(N)nc3-c3cccc(NC(=O)c4c(F)cccc4F)c3)n2)cc1F |
| < 100 | Cc1nc(-c2cccc(NC(=O)c3c(F)cccc3F)c2)c(-c2ccnc(Nc3cccc(OCCN(C)C)c3)n2)s1 |
| < 100 | CN(C)C1Cc2ccc(Nc3nccc(-c4sc(N)nc4-c4cccc(NC(=O)c5c(F)cccc5F)c4)n3)cc2C1 (stereo not drawn) |
| < 100 | CN(C)CCOc1ccc(Nc2nccc(-c3sc(N)nc3-c3cccc(NC(=O)C4CCCCC4)c3)n2)cc1Cl |
| < 100 | Cc1nc(-c2cccc(NC(=O)c3cccc(Cl)c3)c2)c(-c2ccnc(Nc3ccc(OCCN(C)C)c(Cl)c3)n2)s1 |
| < 100 | O=C(Nc1cccc(-c2ncsc2-c2ccnc(Nc3ccc4c(c3)CNCC4)n2)c1)c1c(F)cccc1F |
| < 100 | CN(C)CCOc1ccc(Nc2nccc(-c3sc(N)nc3-c3cccc(NC(=O)c4cc(F)ccc4F)c3)n2)cc1Cl |
| < 100 | CN(C)c1nc(-c2cccc(NC(=O)c3c(F)cccc3F)c2)c(-c2ccnc(Nc3cccc(CN4CCCC4)c3)n2)s1 |
| < 100 | Cc1nc(-c2cccc(NC(=O)c3c(F)cccc3F)c2)c(-c2ccnc(Nc3ccc(OC4CCN(C(=O)OCc5ccccc5)CC4)c(F)c3)n2)s1 |
| < 100 | Nc1nc(-c2cccc(OCc3ccccc3)c2)c(-c2ccnc(Nc3ccc4c(c3)CNCC4)n2)s1 |
| < 100 | CS(=O)(=O)Cc1ccc(Nc2nccc(-c3sc(N)nc3-c3cccc(NC(=O)c4c(F)cccc4F)c3)n2)cc1 |
| < 100 | CN(C)CCOc1cccc(Nc2nccc(-c3sc(NCCCN4CCOCC4)nc3-c3cccc(NC(=O)c4c(F)cccc4F)c3)n2)c1 |
| < 100 | COc1ccc(Nc2nccc(-c3sc(NC4CC4)nc3-c3cccc(NC(=O)c4c(F)cccc4F)c3)n2)cc1OCCN(C)C |
| < 100 | Cc1cc(Nc2nccc(-c3sc(N(C)C)nc3-c3cccc(NC(=O)c4c(F)cccc4F)c3)n2)ccc1CC1CCNCC1 |
| < 100 | CN(C)Cc1cccc(Nc2nccc(-c3scnc3-c3cccc(NC(=O)Cc4cccs4)c3)n2)c1 |
| < 100 | CS(=O)(=O)Cc1ccc(Nc2nccc(-c3scnc3-c3cccc(NC(=O)c4c(F)cccc4F)c3)n2)cc1 |
